# Reference: article PMC7181245, “Antiestrogenic Activity and Possible Mode of Action of Certain New Nonsteroidal Coumarin-4-acetamides” (Molecules, 2020)
# Read-outs that look alike come from different tables or passages of the source.
# Assays:
# [1] = target: T1, aromatase (Homo sapiens, UniProt P11511); experiment: In vitro aromatase inhibition (sandwich enzyme immunoassay); details: for IC50: IC50 (μM) ± S.E.M. (aromatase inhibition activity)
# T1 sequence (P11511 1-503): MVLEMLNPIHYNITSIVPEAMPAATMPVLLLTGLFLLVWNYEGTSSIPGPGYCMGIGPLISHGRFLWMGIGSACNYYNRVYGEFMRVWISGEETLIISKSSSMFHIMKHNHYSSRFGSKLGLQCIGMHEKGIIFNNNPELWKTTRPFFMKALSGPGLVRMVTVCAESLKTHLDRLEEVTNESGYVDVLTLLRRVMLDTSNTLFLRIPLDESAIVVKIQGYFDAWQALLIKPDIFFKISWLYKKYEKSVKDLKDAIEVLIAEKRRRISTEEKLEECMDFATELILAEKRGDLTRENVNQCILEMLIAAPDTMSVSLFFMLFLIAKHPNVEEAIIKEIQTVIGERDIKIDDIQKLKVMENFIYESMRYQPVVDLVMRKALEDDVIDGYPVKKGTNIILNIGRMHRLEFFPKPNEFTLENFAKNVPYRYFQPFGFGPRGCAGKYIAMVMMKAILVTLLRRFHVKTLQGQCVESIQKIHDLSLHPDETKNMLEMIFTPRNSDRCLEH
# Text: Sandwich enzyme immunoassay was adopted for aromatase inhibition assessment [38].
# [2] = system: MCF-7 cell line (ER+ breast cancer cell line); experiment: MTT cytotoxicity assay, MCF-7 cell line; details: for IC50: Homo sapiens, MCF7, read-out: IC50 (μM) ± S.E.M MCF-7 (cytotoxicity)
# Experimental: (§1) The cytotoxic activity of the synthesized compounds IIIa–h was evaluated in vitro against the human breast adenocarcinoma MCF7 (ER^+ breast cancer cell line) and the MDA-MB-231 (triple-negative breast cancer cell line, TNBC), using camptothecin as a pyranone-bearing reference standard.
# (§2) The cytotoxicity of compounds Ia,b, IIa,b, and IIIa–h against the MCF-7 cell line (ER+ breast cancer cell line) and MDA-MB-231 (triple-negative breast cancer cell line, TNBC) was determined using camptothecin as a pyranone-bearing reference standard.
# [3] = system: MDA-MB-231 (triple-negative breast cancer cell line, TNBC); experiment: MTT cytotoxicity assay, MDA-MB-231 cell line
# Experimental: as §1, §2
# [4] = system: estrogen-dependent human breast cancer MCF-7 cell proliferation induced by 17-β-estradiol; experiment: In vitro antiestrogenic activity: MCF-7 cell proliferation assay (MTT) in the presence of 17-β-estradiol; assay type: cell-based; details: inhibition of MCF-7 cell proliferation induced by 17-β-estradiol, read-out: IC50 (μM) ± S.E.M. MCF-7 (in vitro antiestrogenic activity)
# Experimental: The in vitro antiestrogenic activity of the selected target compounds IIIa,b, IIId, and IIIf,g was studied through an estrogen-dependent human breast cancer MCF-7 cell proliferation assay in the presence of 17-β-estradiol. The ability of the tested compounds to inhibit cell proliferation induced by 17-β-estradiol was determined (Table 3 and Figure 4).
# The antiestrogenic activity of the test compounds was examined by performing a 3-(4,5-dimethylthiazol-2-yl)-2,5-diphenyl tetrazolium bromide (MTT) assay of the MCF-7 cell line. In this experiment, MCF-7 cells were treated with 17β-estradiol (+ve cell proliferation compound). The effect of various concentrations of the tested compounds on cell proliferation in the presence of 17β-estradiol was measured.
# [5] = system: MCF-7; parameters: method as in PMID 9391160, PMID 15177442; details: cited from earlier work
# [6] = Homo sapiens, MDA-MB-231, read-out: IC50 (μM) ± S.E.M MDA-MB-231 (cytotoxicity), MTT assay, MDA-MB-231 cells
# [7] = ratio of IC50 values vs camptothecin
SMILES,IC50 [1] [µM],"IC50 ([4]; Homo sapiens, MCF7) [µM]",melting point [°C],IC50 [2] [µM],"IC50 [3, 6] [µM]",also measured
"COc1ccc2oc(=O)cc(CC(=O)Nc3ccc(OC)c(O)c3)c2c1 [IIIe, N-(3-Hydroxy-4-methoxyphenyl)-2-(6-methoxy-2-oxo-2H-chromen-4-yl)acetamide]",17.4,–,173 to 174,15.5 ± 1.24,2.1,aromatase inhibition activity (in words) [1]: moderate inhibitory activity; IC50 ([3]; human): 2.14 ± 0.06 µM
"COc1ccc2c(CC(=O)O)cc(=O)oc2c1 [IIb, (7-methoxy-2-oxo-2H-chromen-4-yl)acetic acid]",–,–,–,8.08 ± 0.25,216 ± 13.2,–
"COc1ccc2oc(=O)cc(CC(=O)Nc3ccccc3)c2c1 [IIIc, 2-(6-Methoxy-2-oxo-2H-chromen-4-yl)-N-phenylacetamide]",1100 ± 52.4,–,219 to 220,10.9 ± 0.99,4.6 ± 0.32,–
O=c1oc2cc(O)ccc2c(Cc2ccc(OCCN3CCCCC3)cc2)c1-c1ccccc1 [SP500263],–,–,–,–,–,agonist activity in the MCF-7 proliferation assay [5]: undesirable agonist activity
"CC(C)COC(=O)c1ccccc1C(=O)O [Monoisobutyl phthalate (MIBP), Monoisobutyl phthalate, reference compound]",–,–,–,–,–,IC50 [4]: 46.4 ± 3.14 µM
"COc1ccc2oc(=O)cc(CC(=O)N3CCCCC3)c2c1 [IIIa, 6-Methoxy-4-(2-oxo-2-(piperidin-1-yl)ethyl)-2H-chromen-2-one]",22.5 ± 3.4,62 ± 4.02,167 to 168,1.82 ± 0.03,38.2 ± 1.52,–
"COc1ccc2c(CC(=O)N3CCCCC3)cc(=O)oc2c1 [IIIb, 7-Methoxy-4-(2-oxo-2-(piperidin-1-yl)ethyl)-2H-chromen-2-one]",89.1 ± 6.2,29.5 ± 3.25,135 to 136,0.32 ± 0.04,12.9 ± 1.17,"potency relative to the reference standard camptothecin, MCF-7 [2, 7]: about 14 fold"
"COc1ccc2c(CC(=O)Nc3ccccc3)cc(=O)oc2c1 [IIIf, 2-(7-Methoxy-2-oxo-2H-chromen-4-yl)-N-phenylacetamide]",332 ± 18.2,99.6 ± 6.39,217 to 218,5.69 ± 0.08,6.9,IC50 ([3]; human): 6.94 ± 0.41 µM
"COc1ccc2oc(=O)cc(CC(=O)Nc3ccc(Br)cc3)c2c1 [IIId, N-(4-Bromophenyl)-2-(6-methoxy-2-oxo-2H-chromen-4-yl)acetamide]",69.9 ± 3.91,214 ± 12.1,202 to 203,2.8 ± 0.04,22.8 ± 1.54,–
"CC[C@@]1(O)C(=O)OCc2c1cc1n(c2=O)Cc2cc3ccccc3nc2-1 [Camptothecin, reference compound]",–,–,–,4.41 ± 0.28,19.2 ± 1.14,–

# Continued, in another order:
IC50 [1] [µM],"IC50 ([4]; Homo sapiens, MCF7) [µM]",melting point [°C],SMILES,IC50 [2] [µM],"IC50 [3, 6] [µM]",also measured
27.1 ± 1.38,64.4 ± 4.12,212 to 213,"COc1ccc2c(CC(=O)Nc3ccc(Br)cc3)cc(=O)oc2c1 [IIIg, N-(4-Bromophenyl)-2-(7-methoxy-2-oxo-2H-chromen-4-yl)acetamide]",0.72 ± 0.02,90.8 ± 3.84,–
–,–,153 to 154,"COC(=O)Cc1cc(=O)oc2ccc(OC)cc12 [Ia, Methyl (6-methoxy-2-oxo-2H-chromen-4-yl)acetate]",13.9 ± 1.15,47.5 ± 2.51,–
32.2 ± 2.39,–,178 to 179,"COc1ccc2oc(=O)cc(CC(=O)O)c2c1 [IIa, (6-Methoxy-2-oxo-2H-chromen-4-yl)acetic acid]",1 ± 0.03,80.2 ± 4.23,–
14.5 ± 1.32,–,–,"COC(=O)Cc1cc(=O)oc2cc(OC)ccc12 [Ib, Methyl (7-methoxy-2-oxo-2H-chromen-4-yl)acetate]",1.44 ± 0.02,1 ± 0.04,"potency relative to the reference standard camptothecin, MDA-MB-231 [3, 7]: about 19 times"
–,–,188 to 189,"COc1ccc2c(CC(=O)Nc3ccc(OC)c(O)c3)cc(=O)oc2c1 [IIIh, N-(3-Hydroxy-4-methoxyphenyl)-2-(7-methoxy-2-oxo-2H-chromen-4-yl)acetamide]",5100 ± 241,14.1 ± 0.61,–
